PubChem BioAssay AID330 (DTP/NCI, 2004)
Values joined by “and” are separate entries in the source; they are usually repeats but may differ in a detail not shown here. Equal entries are not always repeated. Inconclusive results and toxic doses are left out. Rule for the calls: active = survival T/C of 150% or more; inactive = T/C below 125% in these data.

Tested on: P388 leukemia ip, CD2F1 mice, survival T/C
Experiment: NCI In Vivo Anticancer Drug Screen. Data for tumor model P388 Leukemia (intraperitoneal) in CD2F1 (CDF1) mice
Details: endpoint: median survival time, higher = longer survival
Outline: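 Mice carrying the transplanted tumor received test compound or vehicle. Survival was recorded in each group, and the value is the treated-group measurement divided by that of the vehicle-treated control group.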

[1] = dose: 60.0 mg/kg/injection, schedule: Q01DX005 (ip), vehicle: saline with Tween-80
[2] = dose: 120.0 mg/kg/injection, schedule: Q01DX005 (ip), vehicle: saline with Tween-80
[3] = dose: 50.0 mg/kg/injection, schedule: Q04DX003 (ip), vehicle: saline with Tween-80
[4] = dose: 100.0 mg/kg/injection, schedule: Q04DX003 (ip), vehicle: saline with Tween-80
[5] = dose: 200.0 mg/kg/injection, schedule: Q04DX003 (ip), vehicle: saline with Tween-80
[6] = dose: 400.0 mg/kg/injection, schedule: Q04DX003 (ip), vehicle: saline with Tween-80
[7] = dose: 50.0 mg/kg/injection, schedule: Q01DX005 (ip), vehicle: Klucel (hydroxypropylcellulose) (HPC)
[8] = dose: 25.0 mg/kg/injection, schedule: Q01DX009 (ip), vehicle: saline with Tween-80
[9] = dose: 50.0 mg/kg/injection, schedule: Q01DX009 (ip), vehicle: saline with Tween-80
[10] = dose: 25.0 mg/kg/injection, schedule: Q01DX009 (ip), vehicle: Klucel (hydroxypropylcellulose) (HPC)
[11] = dose: 50.0 mg/kg/injection, schedule: Q01DX009 (ip), vehicle: Klucel (hydroxypropylcellulose) (HPC)
[12] = dose: 100.0 mg/kg/injection, schedule: Q01DX009 (ip), vehicle: Klucel (hydroxypropylcellulose) (HPC)
[13] = dose: 6.25 mg/kg/injection, schedule: Q01DX009 (ip), vehicle: Klucel (hydroxypropylcellulose) (HPC)
[14] = dose: 12.5 mg/kg/injection, schedule: Q01DX009 (ip), vehicle: Klucel (hydroxypropylcellulose) (HPC)
[15] = dose: 100.0 mg/kg/injection, schedule: Q01DX005 (ip), vehicle: Klucel (hydroxypropylcellulose) (HPC)
[16] = dose: 200.0 mg/kg/injection, schedule: Q01DX005 (ip), vehicle: Klucel (hydroxypropylcellulose) (HPC)

Measured: T/C

CCCCCCCCCCCC(=O)NCC(=O)NC1CC(OC2CC(O)(C(C)=O)Cc3c(O)c4c(c(O)c32)C(=O)c2c(OC)cccc2C4=O)OC(C)C1O (stereo not given)
inactive: dose: 0.75 mg/kg/injection, schedule: Q01DX009 (ip), vehicle: other 107 % of control | dose: 1.5 mg/kg/injection, schedule: Q01DX009 (ip), vehicle: other 108 % of control | dose: 3.0 mg/kg/injection, schedule: Q01DX009 (ip), vehicle: other 112 % of control | dose: 6.0 mg/kg/injection, schedule: Q01DX009 (ip), vehicle: other 116 % of control | dose: 12.0 mg/kg/injection, schedule: Q01DX009 (ip), vehicle: other 99 % of control

COP(=O)(CC(=O)OC(CC(=O)OCc1ccccc1)C(=O)OCc1ccccc1)OC (stereo not given)
inactive: dose: 50.0 mg/kg/injection, schedule: Q01DX005 (ip), vehicle: saline with Tween-80 98 % of control | dose: 100.0 mg/kg/injection, schedule: Q01DX005 (ip), vehicle: saline with Tween-80 92 % of control | dose: 200.0 mg/kg/injection, schedule: Q01DX005 (ip), vehicle: saline with Tween-80 93 % of control

CCCCNC(=S)N/N=C1/CC(=O)N(c2ccccc2)C1c1ccccc1 (stereo not given)
inactive: [1] 89 % of control | [2] 89 % of control

CCN(CC)CCOc1ccccc1/C=C/c1noc2ccccc12
inactive: dose: 15.0 mg/kg/injection, schedule: Q01DX005 (ip), vehicle: saline 94 % of control | dose: 30.0 mg/kg/injection, schedule: Q01DX005 (ip), vehicle: saline 91 % of control | dose: 60.0 mg/kg/injection, schedule: Q01DX005 (ip), vehicle: saline 98 % of control

CCCCn1c(=S)sc2ccccc21
inactive: [3] 98 % of control | [4] 100 % of control | [5] 104 % of control | [6] 104 % of control

O=C(NC(=O)c1c(F)cccc1F)Nc1ccc(Cl)cn1
inactive: dose: 50.0 mg/kg/injection, schedule: Q04DX002 (ip), vehicle: saline with Tween-80 95 % of control | dose: 100.0 mg/kg/injection, schedule: Q04DX002 (ip), vehicle: saline with Tween-80 100 % of control | dose: 200.0 mg/kg/injection, schedule: Q04DX002 (ip), vehicle: saline with Tween-80 98 % of control

C/C(=N\N(C)C)C1=C(O)C(C(C)C)NC1=O (stereo not given)
inactive: [1] 100 % of control | [2] 105 % of control | dose: 240.0 mg/kg/injection, schedule: Q01DX005 (ip), vehicle: saline with Tween-80 98 % of control

O=C1c2ccccc2CCC1[n+]1ccc2ccccc2c1 (stereo not given)
inactive: dose: 12.5 mg/kg/injection, schedule: Q01DX005 (ip), vehicle: Klucel (hydroxypropylcellulose) (HPC) 102 % of control | dose: 25.0 mg/kg/injection, schedule: Q01DX005 (ip), vehicle: Klucel (hydroxypropylcellulose) (HPC) 104 % of control | [7] 106 % of control and 111 % of control

CCCCN(C)N=Nc1ccccc1C(N)=O
inactive: [8] 109 % of control | [9] 118 % of control | [4] 113 % of control | dose: 176.0 mg/kg/injection, schedule: Q04DX003 (ip), vehicle: saline with Tween-80 109 % of control | [5] 109 % of control | dose: 264.0 mg/kg/injection, schedule: Q04DX003 (ip), vehicle: saline with Tween-80 109 % of control | [6] 100 % of control

c1ccc(OCCNCCOc2ccccc2)cc1
inactive: dose: 60.0 mg/kg/injection, schedule: Q01DX005 (ip), vehicle: Klucel (hydroxypropylcellulose) (HPC) 104 % of control | dose: 120.0 mg/kg/injection, schedule: Q01DX005 (ip), vehicle: Klucel (hydroxypropylcellulose) (HPC) 98 % of control | dose: 240.0 mg/kg/injection, schedule: Q01DX005 (ip), vehicle: Klucel (hydroxypropylcellulose) (HPC) 103 % of control

COC(=O)c1ccn2c1CCC2
inactive: [10] 91 % of control | [11] 91 % of control | [12] 95 % of control | dose: 200.0 mg/kg/injection, schedule: Q01DX009 (ip), vehicle: Klucel (hydroxypropylcellulose) (HPC) 98 % of control | dose: 400.0 mg/kg/injection, schedule: Q01DX009 (ip), vehicle: Klucel (hydroxypropylcellulose) (HPC) 91 % of control

OC1C[n+]2cc3ccccn3c2-c2cccc[n+]21 (stereo not given)
inactive: dose: 12.5 mg/kg/injection, schedule: Q01DX009 (ip), vehicle: saline 94 % of control | dose: 25.0 mg/kg/injection, schedule: Q01DX009 (ip), vehicle: saline 97 % of control | dose: 50.0 mg/kg/injection, schedule: Q01DX009 (ip), vehicle: saline 100 % of control

O=c1[nH]cnc2c1nc(Br)n2C1OC(CO)C(O)C1O (stereo not given)
inactive: [13] 94 % of control | [14] 94 % of control | [10] 94 % of control | [11] 97 % of control | [12] 94 % of control

Cc1ccc(S(=O)(=O)N/N=C/c2ccccc2Cl)cc1
inactive: [13] 94 % of control | [14] 98 % of control | [10] 106 % of control | [8] 106 % of control | [11] 104 % of control | [9] 104 % of control | [12] 106 % of control | dose: 100.0 mg/kg/injection, schedule: Q01DX009 (ip), vehicle: saline with Tween-80 106 % of control | dose: 200.0 mg/kg/injection, schedule: Q01DX009 (ip), vehicle: saline with Tween-80 100 % of control

O=C=Nc1cccc2c1C(=O)c1ccccc1-2
inactive: [7] 91 % of control | [15] 88 % of control | [16] 86 % of control

CCCCC(NC(=O)OC(C)(C)C)C(=O)O (stereo not given)
inactive: [7] 98 % of control | [15] 99 % of control | [16] 104 % of control

Cc1cc(=O)n2c(-c3ccccc3)csc2n1
inactive: dose: 100.0 mg/kg/injection, schedule: Q04DX003 (ip), vehicle: Klucel (hydroxypropylcellulose) (HPC) 101 % of control | dose: 200.0 mg/kg/injection, schedule: Q04DX003 (ip), vehicle: Klucel (hydroxypropylcellulose) (HPC) 110 % of control | dose: 400.0 mg/kg/injection, schedule: Q04DX003 (ip), vehicle: Klucel (hydroxypropylcellulose) (HPC) 113 % of control

Cc1nc(Cl)c2cnccn12
inactive: dose: 25.0 mg/kg/injection, schedule: Q04DX003 (ip), vehicle: saline 100 % of control | dose: 50.0 mg/kg/injection, schedule: Q04DX003 (ip), vehicle: saline 100 % of control

CC(O)c1cc2c(cc1Br)OCO2 (stereo not given)
inactive: dose: 100.0 mg/kg/injection, schedule: Q01DX001 (ip), vehicle: Klucel (hydroxypropylcellulose) (HPC) 105 % of control | dose: 200.0 mg/kg/injection, schedule: Q01DX001 (ip), vehicle: Klucel (hydroxypropylcellulose) (HPC) 104 % of control | dose: 400.0 mg/kg/injection, schedule: Q01DX001 (ip), vehicle: Klucel (hydroxypropylcellulose) (HPC) 104 % of control

Cc1cc(N=C2C=CC(=[N+](C)C)C=C2)c(N)cc1N
inactive: [8] 107 % of control | [9] 107 % of control

FC(F)(F)C1(C(F)(F)F)SC(C(F)(F)F)(C(F)(F)F)S1
inactive: dose: 50.0 mg/kg/injection, schedule: Q01DX005 (ip), vehicle: saline 104 % of control | dose: 100.0 mg/kg/injection, schedule: Q01DX005 (ip), vehicle: saline 107 % of control | dose: 200.0 mg/kg/injection, schedule: Q01DX005 (ip), vehicle: saline 104 % of control

COc1ccc2c(c1)C(=O)C1(CC2)OC1c1cccnc1 (stereo not given)
inactive: dose: 12.5 mg/kg/injection, schedule: Q01DX009 (ip), vehicle: other 110 % of control | dose: 25.0 mg/kg/injection, schedule: Q01DX009 (ip), vehicle: other 115 % of control | dose: 50.0 mg/kg/injection, schedule: Q01DX009 (ip), vehicle: other 100 % of control and 117 % of control | dose: 100.0 mg/kg/injection, schedule: Q01DX009 (ip), vehicle: other 115 % of control and 117 % of control | dose: 200.0 mg/kg/injection, schedule: Q01DX009 (ip), vehicle: other 94 % of control | dose: 400.0 mg/kg/injection, schedule: Q01DX009 (ip), vehicle: other 99 % of control

COc1cc(C=Nc2ccc(C(=O)O)cc2)ccc1N(CCCl)CCCl
inactive: [3] 90 % of control
active: dose: 37.5 mg/kg/injection, schedule: Q04DX003 (ip), vehicle: saline with Tween-80 155 % of control
